Experimental data taken from patent publication US8952024B2, “Herbicidal pyrimidone derivatives” (E I du Pont de Nemours and Company, priority 2009, dated 2015).

Assays:
Type in all cases: in vivo
[1] = test system: barnyardgrass (Echinochloa crus-galli); experiment: Test A pre-/postemergence plant response
Outline: (§1)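 Formulated test chemicals (non-phytotoxic solvent, surfactant) were sprayed onto soil right after planting and simultaneously onto young plants at one to two leaves, 2 to 10 cm tall. Plants stayed in the greenhouse about ten days; injury was then visually scored against untreated controls, from 0 (no effect) to 100 (complete control).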

corn (Zea mays) = experiment: Test A pre-/postemergence plant response
Outline: as §1

[2] = test system: giant foxtail (Setaria faberii); experiment: Test A pre-/postemergence plant response
Outline: as §1

[3] = test system: pigweed (Amaranthus retroflexus); experiment: Test A pre-/postemergence plant response
Outline: as §1

[4] = test system: galium (catchweed bedstraw, Galium aparine); experiment: Test B pre-/postemergence plant response; conditions: Preemergence; for Galium plant response rating: 125 g ai/ha
Outline: (§2)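 Compound in solvent + surfactant applied pre-em (loam/sand) or post-em (plants 2–18 cm, peat medium); greenhouse hold 13–15 days; visual 0–100 control score.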

[5] = test system: nightshade (eastern black nightshade, Solanum ptycanthum); experiment: Test B pre-/postemergence plant response; conditions: Preemergence; for Nightshade plant response rating: 125 g ai/ha
Outline: as §2

[6] = test system: sunflower (common oilseed sunflower, Helianthus annuus); experiment: Test B pre-/postemergence plant response; conditions: Preemergence; for Sunflower plant response rating: 125 g ai/ha
Outline: as §2

[7] = test system: barnyardgrass (Echinochloa crus-galli); experiment: Test B flooded paddy test; conditions: for Plant response rating, Flood, Barnyardgrass: 250 g ai/ha, flooded paddy test, visual rating on 0 to 100 scale (0 no effect, 100 complete control) after 13 to 15 days; for Plant response rating, Barnyardgrass: Flood (flooded paddy test), 13 to 15 days
Outline: (§3)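 2-leaf seedlings; pots flooded 3 cm over soil at treatment; cpd dosed into floodwater, depth kept constant. Greenhouse 13–15 d. Visual rating vs untreated controls, 0 = no effect, 100 = complete control.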

[8] = test system: ducksalad (Heteranthera limosa); experiment: Test B flooded paddy test; conditions: for Plant response rating, Flood, Ducksalad: 250 g ai/ha, flooded paddy test, visual rating on 0 to 100 scale (0 no effect, 100 complete control) after 13 to 15 days; for Plant response rating, Ducksalad: Flood (flooded paddy test), 13 to 15 days
Outline: as §3

rice (Oryza sativa) = experiment: Test B flooded paddy test; conditions: for Plant response rating, Flood, Rice: 250 g ai/ha, flooded paddy test, visual rating on 0 to 100 scale (0 no effect, 100 complete control) after 13 to 15 days; for Plant response rating, Rice: Flood (flooded paddy test), 13 to 15 days
Outline: as §3

[9] = test system: umbrella sedge (Cyperus difformis); experiment: Test B flooded paddy test; conditions: for Plant response rating, Flood, Sedge, Umbrella: 250 g ai/ha, flooded paddy test, visual rating on 0 to 100 scale (0 no effect, 100 complete control) after 13 to 15 days; for Plant response rating, Sedge, Umbrella: Flood (flooded paddy test), 13 to 15 days
Outline: as §3

[10] = test system: goosegrass (Eleusine indica); experiment: Test B pre-/postemergence plant response; conditions: Preemergence, 62 g ai/ha; scale 0 to 100, 0 no effect, 100 complete control
[11] = Postemergence, 125 g ai/ha, visual injury, 0 to 100 scale (0 no effect, 100 complete control), approx. ten days
[12] = Postemergence, 500 g ai/ha, 0 to 100 scale, 0 = no effect, 100 = complete control, approx. ten days
[13] = Preemergence, 125 g ai/ha, 0 to 100 scale, 0 = no effect, 100 = complete control
[14] = Preemergence, 500 g ai/ha, visual injury, 0 to 100 scale (0 no effect, 100 complete control), approx. ten days
[15] = 31 g ai/ha, scale 0 to 100 (0 no effect, 100 complete control)
[16] = 62 g ai/ha, scale 0 to 100, 0 no effect, 100 complete control
[17] = 62 g ai/ha, scale of 0 to 100 where 0 is no effect and 100 is complete control
[18] = 31 g ai/ha, scale of 0 to 100 where 0 is no effect and 100 is complete control
[19] = 125 g ai/ha, scale 0 to 100, 0 is no effect, 100 is complete control

Cc1cc(F)ccc1-n1c(-c2ccccc2)ncc(C(=O)C2=C(O)CCCC2=O)c1=O [Compound 48]
Barnyardgrass plant response rating [1, 11]: 80
Plant response rating, Barnyardgrass [1, 12]: 90
Plant response rating, Barnyardgrass [1, 13]: 20
Plant response rating, Barnyardgrass [1, 14]: 100
Corn plant response rating (corn (Zea mays); [11]): 0
Plant response rating, Corn (corn (Zea mays); [12]): 30
Plant response rating, Corn (corn (Zea mays); [13]): 0
Plant response rating, Corn (corn (Zea mays); [14]): 0
Foxtail, Giant plant response rating [2, 11]: 90
Plant response rating, Foxtail, Giant [2, 12]: 100
Plant response rating, Foxtail, Giant [2, 13]: 70
Plant response rating, Foxtail, Giant [2, 14]: 90
Pigweed plant response rating [3, 11]: 100
Plant response rating, Pigweed [3, 12]: 100
Plant response rating, Pigweed [3, 13]: 90
Plant response rating, Pigweed [3, 14]: 100
Plant response rating, Galium ([4]; 250 g ai/ha, 0 to 100 scale): 70
Plant response rating, Galium [4, 15]: 0
Plant response rating, Galium [4, 16]: 60
Galium plant response rating ([4]; 0 to 100 scale): 60
Plant response rating, Nightshade ([5]; 250 g ai/ha, 0 to 100 scale): 100
Plant response rating, Nightshade [5, 15]: 100
Plant response rating, Nightshade [5, 16]: 100
Nightshade plant response rating ([5]; 0 to 100 scale): 100
Plant response rating, Sunflower ([6]; 250 g ai/ha, 0 to 100 scale): 80
Plant response rating, Sunflower [6, 15]: 0
Sunflower plant response rating ([6]; 0 to 100 scale): 80
Plant response rating, Flood, Barnyardgrass [7]: 35
Plant response rating, Barnyardgrass [7, 17]: 0
Plant response rating, Flood, Ducksalad [8]: 85
Plant response rating, Ducksalad [8, 17]: 0
Plant response rating, Flood, Rice (rice (Oryza sativa)): 65
Plant response rating, Rice (rice (Oryza sativa); [17]): 0
Plant response rating, Flood, Sedge, Umbrella [9]: 75
Plant response rating, Sedge, Umbrella [9, 17]: 40
Plant response rating, Goosegrass [10]: 100

CCn1c(-c2ccccc2)ncc(C(=O)C2=C(O)CCCC2=O)c1=O [Compound 49]
Barnyardgrass plant response rating [1, 11]: 60
Plant response rating, Barnyardgrass [1, 12]: 90
Plant response rating, Barnyardgrass [1, 13]: 20
Plant response rating, Barnyardgrass [1, 14]: 60
Corn plant response rating (corn (Zea mays); [11]): 0
Plant response rating, Corn (corn (Zea mays); [12]): 20
Plant response rating, Corn (corn (Zea mays); [13]): 0
Plant response rating, Corn (corn (Zea mays); [14]): 0
Foxtail, Giant plant response rating [2, 11]: 50
Plant response rating, Foxtail, Giant [2, 12]: 80
Plant response rating, Foxtail, Giant [2, 13]: 20
Plant response rating, Foxtail, Giant [2, 14]: 50
Pigweed plant response rating [3, 11]: 100
Plant response rating, Pigweed [3, 12]: 100
Plant response rating, Pigweed [3, 13]: 80
Plant response rating, Pigweed [3, 14]: 90
Plant response rating, Galium ([4]; 250 g ai/ha, 0 to 100 scale): 95
Plant response rating, Galium [4, 15]: 0
Plant response rating, Galium [4, 16]: 80
Galium plant response rating ([4]; 0 to 100 scale): 90
Plant response rating, Nightshade ([5]; 250 g ai/ha, 0 to 100 scale): 98
Plant response rating, Nightshade [5, 15]: 98
Plant response rating, Nightshade [5, 16]: 98
Nightshade plant response rating ([5]; 0 to 100 scale): 98
Plant response rating, Sunflower ([6]; 250 g ai/ha, 0 to 100 scale): 75
Plant response rating, Sunflower [6, 15]: 60
Sunflower plant response rating ([6]; 0 to 100 scale): 75
Plant response rating, Flood, Barnyardgrass [7]: 0
Plant response rating, Barnyardgrass [7, 18]: 0
Plant response rating, Barnyardgrass [7, 17]: 0
Plant response rating, Barnyardgrass [7, 19]: 0
Plant response rating, Flood, Ducksalad [8]: 70
Plant response rating, Ducksalad [8, 18]: 0
Plant response rating, Ducksalad [8, 17]: 0
Plant response rating, Ducksalad [8, 19]: 40
Plant response rating, Flood, Rice (rice (Oryza sativa)): 15
Plant response rating, Rice (rice (Oryza sativa); [18]): 0
Plant response rating, Rice (rice (Oryza sativa); [17]): 0
Plant response rating, Rice (rice (Oryza sativa); [19]): 10
Plant response rating, Flood, Sedge, Umbrella [9]: 85
Plant response rating, Sedge, Umbrella [9, 18]: 0
Plant response rating, Sedge, Umbrella [9, 17]: 0
Plant response rating, Sedge, Umbrella [9, 19]: 0
Plant response rating, Goosegrass [10]: 95

CCCn1c(-c2ccccc2)ncc(C(=O)C2=C(O)CCCC2=O)c1=O [Compound 50]
Barnyardgrass plant response rating [1, 11]: 90
Plant response rating, Barnyardgrass [1, 12]: 100
Plant response rating, Barnyardgrass [1, 13]: 50
Plant response rating, Barnyardgrass [1, 14]: 90
Corn plant response rating (corn (Zea mays); [11]): 0
Plant response rating, Corn (corn (Zea mays); [12]): 30
Plant response rating, Corn (corn (Zea mays); [13]): 0
Plant response rating, Corn (corn (Zea mays); [14]): 0
Foxtail, Giant plant response rating [2, 11]: 90
Plant response rating, Foxtail, Giant [2, 12]: 90
Plant response rating, Foxtail, Giant [2, 13]: 50
Plant response rating, Foxtail, Giant [2, 14]: 80
Pigweed plant response rating [3, 11]: 100
Plant response rating, Pigweed [3, 12]: 100
Plant response rating, Pigweed [3, 13]: 90
Plant response rating, Pigweed [3, 14]: 100
Plant response rating, Galium ([4]; 250 g ai/ha, 0 to 100 scale): 98
Plant response rating, Galium [4, 15]: 70
Plant response rating, Galium [4, 16]: 95
Galium plant response rating ([4]; 0 to 100 scale): 95
Plant response rating, Nightshade ([5]; 250 g ai/ha, 0 to 100 scale): 100
Plant response rating, Nightshade [5, 15]: 100
Plant response rating, Nightshade [5, 16]: 100
Nightshade plant response rating ([5]; 0 to 100 scale): 100
Plant response rating, Sunflower ([6]; 250 g ai/ha, 0 to 100 scale): 85
Plant response rating, Sunflower [6, 15]: 55
Sunflower plant response rating ([6]; 0 to 100 scale): 85
Plant response rating, Flood, Barnyardgrass [7]: 60
Plant response rating, Barnyardgrass [7, 18]: 0
Plant response rating, Barnyardgrass [7, 17]: 0
Plant response rating, Barnyardgrass [7, 19]: 35
Plant response rating, Flood, Ducksalad [8]: 85
Plant response rating, Ducksalad [8, 18]: 70
Plant response rating, Ducksalad [8, 17]: 75
Plant response rating, Ducksalad [8, 19]: 85
Plant response rating, Flood, Rice (rice (Oryza sativa)): 20
Plant response rating, Rice (rice (Oryza sativa); [18]): 0
Plant response rating, Rice (rice (Oryza sativa); [17]): 10
Plant response rating, Rice (rice (Oryza sativa); [19]): 15
Plant response rating, Flood, Sedge, Umbrella [9]: 95
Plant response rating, Sedge, Umbrella [9, 18]: 75
Plant response rating, Sedge, Umbrella [9, 17]: 75
Plant response rating, Sedge, Umbrella [9, 19]: 85
Plant response rating, Goosegrass [10]: 98

Cc1ccc(F)c(-n2c(-c3ccccc3)ncc(C(=O)C3=C(O)CCCC3=O)c2=O)c1 [Compound 51]
Barnyardgrass plant response rating [1, 11]: 90
Plant response rating, Barnyardgrass [1, 12]: 90
Plant response rating, Barnyardgrass [1, 13]: 10
Plant response rating, Barnyardgrass [1, 14]: 90
Corn plant response rating (corn (Zea mays); [11]): 0
Plant response rating, Corn (corn (Zea mays); [12]): 80
Plant response rating, Corn (corn (Zea mays); [13]): 0
Plant response rating, Corn (corn (Zea mays); [14]): 0
Foxtail, Giant plant response rating [2, 11]: 90
Plant response rating, Foxtail, Giant [2, 12]: 90
Plant response rating, Foxtail, Giant [2, 13]: 30
Plant response rating, Foxtail, Giant [2, 14]: 100
Pigweed plant response rating [3, 11]: 100
Plant response rating, Pigweed [3, 12]: 100
Plant response rating, Pigweed [3, 13]: 90
Plant response rating, Pigweed [3, 14]: 100
Plant response rating, Galium ([4]; 250 g ai/ha, 0 to 100 scale): 95
Plant response rating, Galium [4, 15]: 0
Plant response rating, Galium [4, 16]: 75
Galium plant response rating ([4]; 0 to 100 scale): 80
Plant response rating, Nightshade ([5]; 250 g ai/ha, 0 to 100 scale): 100
Plant response rating, Nightshade [5, 15]: 98
Plant response rating, Nightshade [5, 16]: 98
Nightshade plant response rating ([5]; 0 to 100 scale): 98
Plant response rating, Sunflower ([6]; 250 g ai/ha, 0 to 100 scale): 75
Plant response rating, Sunflower [6, 15]: 20
Sunflower plant response rating ([6]; 0 to 100 scale): 75
Plant response rating, Flood, Barnyardgrass [7]: 55
Plant response rating, Barnyardgrass [7, 18]: 15
Plant response rating, Barnyardgrass [7, 17]: 20
Plant response rating, Barnyardgrass [7, 19]: 40
Plant response rating, Flood, Ducksalad [8]: 95
Plant response rating, Ducksalad [8, 18]: 0
Plant response rating, Ducksalad [8, 17]: 30
Plant response rating, Ducksalad [8, 19]: 85
Plant response rating, Flood, Rice (rice (Oryza sativa)): 60
Plant response rating, Rice (rice (Oryza sativa); [18]): 10
Plant response rating, Rice (rice (Oryza sativa); [17]): 15
Plant response rating, Rice (rice (Oryza sativa); [19]): 25
Plant response rating, Flood, Sedge, Umbrella [9]: 90
Plant response rating, Sedge, Umbrella [9, 18]: 30
Plant response rating, Sedge, Umbrella [9, 17]: 40
Plant response rating, Sedge, Umbrella [9, 19]: 85
Plant response rating, Goosegrass [10]: 100
